Marks after values point to notes of the source that are not given here.
How the values were obtained:
control mice = assay: Radiant heat tail-flick antinociception, control (LPS-untreated) mice; type: in vivo; settings: control mice; for CONTROLS ED50 (CI) i.t. / CONTROLS ED50 (CI) i.c.v.: tail flick
From the text: Pain is a hallmark of many inflammatory conditions.

LPS-pretreated mice = assay: animal or person; settings: for LPS pretreated ED50 (CI) i.t. / LPS pretreated i.c.v./i.t. ratio / LPS pretreated ED50 (CI) i.c.v.: LPS 1 mg/kg 24 hours i.p.; for LPS pretreated ED50 (CI) i.t. / LPS pretreated ED50 (CI) i.c.v.: tail flick; for percent maximal possible effect at highest dose measured: 1000 pmol/mouse; for Relative Potency relative to a mixture of monovalent mu agonist (4) and CCR5 antagonist (2): mouse, in vivo; for ED50 values (95% CI) LPS (thermal): LPS thermal hyperalgesia model
Experimental: Male ICR-CD1 mice (17-25 g; Harlan, Madison, Wis.), C3H mice (15-20 g, National Cancer Institute, Bethesda, Md.) or TLR4 knock-out mice (gift from Dr. Sabita Roy) were housed, 4 to a small box in a temperature- and humidity-controlled environment with unlimited access to food and water. They were maintained on a 12 h light/dark cycle. All experiments were approved by the Institutional Animal Care and Use Committee of the University of Minnesota (Minneapolis, Minn.).
The tail flick assay is used to test for antinociception described by D'Amour and Smith^64 and modified by Dewey et. al.^65 Mice are held gently in one hand with the tail positioned in the apparatus (Tail Flick Analgesia Meter, Columbus Instruments, Columbus, Ohio) for radiant heat stimulus. The tail-flick response is elicited by applying radiant heat to the dorsal side of the tail. The test latency is measured before drug treatment (control) and again after the drug treatment (test) at the peak time of the compound, a 10 s maximum cut-off time is used to prevent damage to the tail. Antinociception is quantified according to the method of Harris and Pierson^66 as the percent maximal possible effect (% MPE) which is calculated as: % MPE=(Test−Control/10−Control)×100
A minimum of three groups of eight to ten mice are used for each dose response curve, and each mouse is used only once.
The compounds were tested for acute tolerance by comparing the ED80-90 dose measured on day 1 to the same dose administered and retested 24 hours later on the same mouse.
Compounds were dissolved in 5% DMSO and diluted to less than 1% DMSO for injection. These compounds were administered in a volume of 5-μl either i.c.v (Haley and McCormick) or intrathecal (i.t.) as described for mice by Hylden and Wilcox^67 in conscious mice. […] Time course studies, including the times 5, 10, 20, 30 and 60 minutes were used to determine the peak antinociception.
Pain is a hallmark of many inflammatory conditions. […] Antinociception was evaluated using the radiant heat-induced tailflick assay. Morphine was employed as a standard opioid agonist under these conditions.

[1] = tested on: CFA-induced mechanical hyperalgesia mouse model; assay: Complete Freund's Adjuvant (CFA) mechanical hyperalgesia, electronic von Frey; type: in vivo, mice; settings: i.t.
Experimental: Before injection of CFA baseline withdrawal thresholds (g) were obtained from a mechanical stimulation using an electronic von Frey anesthesiometer (IITC Life Sciences, Woodland Hills, USA) by applying an accurate force on both left and right hind paw. (2,3) The left hindpaws were then injected (intraplantar) with a 50% solution of CFA (10 μg, Sigma-Aldrich) in water while the mice are under isoflurane anesthesia (10). Twenty-four hours later the withdrawal threshold (g) was again measured prior to and after the test compound i.t. at 10, 20, 30 and 60 minutes to determine the peak time and subsequent ED50. % MPE was calculated ((Time-point withdrawal threshold with drug−CFA withdrawal threshold)/(Day 0 withdrawal threshold−CFA withdrawal threshold))*100 (Wade, C. L., et al., PLoS One 2013, 8, e79239/1-e79239/11, 11 pp; Martinov, T., et al., J Vis Exp 2013, e51212; Sorge, R. E., et al., J. Neurosci. 2011, 31, 15450-15454).

Row | Compound | CONTROLS i.c.v./i.t. ratio (control mice) | percent maximal possible effect at highest dose measured (control mice; i.c.v., 1000 pmol/mouse) | percent maximal possible effect at highest dose measured (control mice; i.t., 1000 pmol/mouse) [%] | LPS pretreated ED50 (CI) i.t. (LPS-pretreated mice; i.t.) [pmol/mouse] | percent maximal possible effect at highest dose measured (LPS-pretreated mice; LPS pretreated, i.c.v.) [%] | percent maximal possible effect at highest dose measured (control mice; i.c.v., 250 pmol/mouse) [%] | acute tolerance (ED80 retested 24 hours later) (control mice; i.t.) | CONTROLS ED50 (CI) i.t. (control mice; i.t.) [pmol/mouse] | LPS pretreated i.c.v./i.t. ratio (LPS-pretreated mice) | LPS pretreated ED50 (CI) i.c.v. (LPS-pretreated mice; i.c.v.) [pmol/mouse] | Relative Potency relative to a mixture of monovalent mu agonist (4) and CCR5 antagonist (2) (LPS-pretreated mice) | acute tolerance (ED80 retested 24 hours later) (control mice; i.c.v.) | CONTROLS ED50 (CI) i.c.v. (control mice; i.c.v.) [pmol/mouse] | ED50 values (95% CI) LPS (thermal) (LPS-pretreated mice; i.t.) [pmol/mouse] | tolerance upon repeated administration (LPS-pretreated mice; i.t., LPS-pretreated mice) | ED50 values (95% CI) CFA (mechanical) [1] [pmol/mouse] | % MPE still present 24 hours later (LPS-pretreated mice; LPS pretreated, i.t., 24 hours later) [% MPE] | percent maximal possible effect at highest dose measured (control mice; i.t., 500 pmol/mouse) [%] | percent maximal possible effect at highest dose measured (LPS-pretreated mice; LPS pretreated, i.t.) [%]
1 | CC(=O)N1CCC(C(=O)N(CCCN2CCC(Cc3ccc(C(N)=O)cc3)CC2)c2ccc(C)c(Cl)c2)CC1 [Compound 2, TAK-220, reference compound] | 1 | 26.2 ± 5.9% | 34.2 ± 10.8 | 740 | 7.6 ± 1.5 |  |  |  |  |  |  |  |  |  |  |  |  |  | 
2 | Cc1ccc(N(CCCN2CCC(Cc3ccc(C(N)=O)cc3)CC2)C(=O)C2CCN(C(=O)COCC(=O)NCCCCCCCNC(=O)COCC(=O)N[C@H]3CC[C@@]4(O)C5Cc6ccc(O)c7c6[C@@]4(CCN5C)[C@H]3O7)CC2)cc1Cl [Compound 3c, N-(3-(4-(4-carbamoylbenzyl)piperidin-1-yl)propyl)-N-(3-chloro-4-methylphenyl)-1-(19-(((4aS,7S,7aR,12bS)-4a,9-dihydroxy-3-methyl-2,3,4,4a,5,6,7,7a-octahydro-1H-4,12-methanobenzofuro[3,2-e]isoquinolin-7-yl)amino)-5,15,19-trioxo-3,17-dioxa-6,14-diazanonadecan-1-oyl)piperidine-4-carboxamide] |  |  |  | 11.4 |  | 35.9 ± 9.0 | (54.6-507)^c | 166 | 60.7 | 692 | 4.6 |  |  |  |  |  |  |  | 
3 | CNC(=O)COCC(=O)NCCCCCCCNC(=O)COCC(=O)N[C@H]1CC[C@@]2(O)C3Cc4ccc(O)c5c4[C@@]2(CCN3C)[C@H]1O5 [Compound 4, reference compound] | 0.95 |  |  | 21.3 |  |  | (86.5-148)^c | 113 | 7.93 | 169 |  | (83.1-141)^c | 108 | 21 | exhibited tolerance | 27 |  |  | 
4 | Cc1ccc(N(CCCN2CCC(Cc3ccc(C(N)=O)cc3)CC2)C(=O)C2CCN(C(=O)COCC(=O)NCCCCCCCCCNC(=O)COCC(=O)N[C@H]3CC[C@@]4(O)C5Cc6ccc(O)c7c6[C@@]4(CCN5C)[C@H]3O7)CC2)cc1Cl [Compound 3d, N-(3-(4-(4-carbamoylbenzyl)piperidin-1-yl)propyl)-N-(3-chloro-4-methylphenyl)-1-(21-(((4aS,7S,7aR,12bS)-4a,9-dihydroxy-3-methyl-2,3,4,4a,5,6,7,7a-octahydro-1H-4,12-methanobenzofuro[3,2-e]isoquinolin-7-yl)amino)-5,17,21-trioxo-3,19-dioxa-6,16-diazahenicosan-1-oyl)piperidine-4-carboxamide] | 63.98 | 54.5 ± 14.5^ % |  | 8.43 | 63.1 ± 45.2 |  |  | 15.83 | 118.62 |  | 6.2 |  |  |  |  |  | 24 |  | 
5 | Cc1ccc(N(CCCN2CCC(Cc3ccc(C(N)=O)cc3)CC2)C(=O)C2CCN(C(=O)COCC(=O)NCCCCCCCCCCCCNC(=O)COCC(=O)N[C@H]3CC[C@@]4(O)C5Cc6ccc(O)c7c6[C@@]4(CCN5C)[C@H]3O7)CC2)cc1Cl [Compound 3f, N-(3-(4-(4-carbamoylbenzyl)piperidin-1-yl)propyl)-N-(3-chloro-4-methylphenyl)-1-(24-(((4aS,7S,7aR,12bS)-4a,9-dihydroxy-3-methyl-2,3,4,4a,5,6,7,7a-octahydro-1H-4,12-methanobenzofuro[3,2-e]isoquinolin-7-yl)amino)-5,20,24-trioxo-3,22-dioxa-6,19-diazatetracosan-1-oyl)piperidine-4-carboxamide] | ~2.97 | 27.6 ± 9.1% |  | 122.70 | 55.7 ± 11.2 |  |  | 336.9 | 8.15^d |  | 0.4 |  |  | 123 |  | 58 |  |  | 
6 | Cc1ccc(N(CCCN2CCC(Cc3ccc(C(N)=O)cc3)CC2)C(=O)C2CCN(C(=O)COCC(=O)NCCNC(=O)COCC(=O)N[C@H]3CC[C@@]4(O)C5Cc6ccc(O)c7c6[C@@]4(CCN5C)[C@H]3O7)CC2)cc1Cl [Compound 3a, N-(3-(4-(4-carbamoylbenzyl)piperidin-1-yl)propyl)-N-(3-chloro-4-methylphenyl)-1-(14-(((4aS,7S,7aR,12bS)-4a,9-dihydroxy-3-methyl-2,3,4,4a,5,6,7,7a-octahydro-1H-4,12-methanobenzofuro[3,2-e]isoquinolin-7-yl)amino)-5,10,14-trioxo-3,12-dioxa-6,9-diazatetradecan-1-oyl)piperidine-4-carboxamide] | 3.29 |  |  | 10.6 |  |  | (27.3-38.4)^b | 32.3 | 5.32 | 56.41 | 4.9 | (78.2-145)^c | 107 | 11 |  | 3 |  |  | 
7 | Cc1ccc(N(CCCN2CCC(Cc3ccc(C(N)=O)cc3)CC2)C(=O)C2CCN(C(=O)COCC(=O)NCCCCCNC(=O)COCC(=O)N[C@H]3CC[C@@]4(O)C5Cc6ccc(O)c7c6[C@@]4(CCN5C)[C@H]3O7)CC2)cc1Cl [Compound 3b, N-(3-(4-(4-carbamoylbenzyl)piperidin-1-yl)propyl)-N-(3-chloro-4-methylphenyl)-1-(17-(((4aS,7S,7aR,12bS)-4a,9-dihydroxy-3-methyl-2,3,4,4a,5,6,7,7a-octahydro-1H-4,12-methanobenzofuro[3,2-e]isoquinolin-7-yl)amino)-5,13,17-trioxo-3,15-dioxa-6,12-diazaheptadecan-1-oyl)piperidine-4-carboxamide] | 3.14 |  |  | 10.9 |  |  | (253-543)^c | 371 | 6.38 | 187 | 4.8 | (166-72.2)^c | 358 |  |  |  |  |  | 
8 | CNC(=O)COCC(=O)NCCCCCCCNC(=O)COCC(=O)N1CCC(C(=O)N(CCCN2CCC(Cc3ccc(C(N)=O)cc3)CC2)c2ccc(C)c(Cl)c2)CC1 [Compound 5, N-(3-(4-(4-carbamoylbenzyl)piperidin-1-yl)propyl)-N-(3-chloro-4-methylphenyl)-1-(3,7,17-trioxo-5,19-dioxa-2,8,16-triazahenicosan-21-oyl)piperidine-4-carboxamide] |  |  |  |  | 51.9 ± 12.3 |  |  |  |  |  |  |  | 505 |  |  |  |  | 28.1 ± 11.3 | 32.4 ± 12.5
